Reference: patent publication US20090311237A1, “Combination therapy using a soluble hyaluronidase and a bisphosphonate” (priority 2008, published 2009)

Assay: Urinary excretion of unchanged ZA in pigs
Format: in vivo, pig
Conditions: for Dose Amt 2 hr, Mean / Dose Amt 2 hr, Median: n 4; for mean percent of dose excreted unchanged in urine: pig, first 2 hours post dose
Method: Following ZA dose administration, serial blood samples were collected via vascular access ports (VAPs) for serum preparation and determination of ZA concentrations. […] Urine samples were also collected to compare excretion characteristics between IV and SC routes of administration.
Serum concentration of ZA was determined using a qualified LC-MS-MS assay after derivatization with diazomethane (Zhu, L S et al. (2006) Rapid Commun. Mass Spectrom. 20: 3421-3426; “Qualification Data of An LC-MS/MS Method for the Determination of Zoledronate in Porcine Serum”, MDS Pharma Services Study No. AA43671-01, Report Date 14 Sep. 2007). The assay range was from 2.0 to 400 ng/mL with a lower limit of quantitation (LLOQ) at 2.0 ng/mL. Urine concentration of ZA was determined by a similar well qualified LC-MS-MS method (“Qualification Data of An LC-MS/MS Method for the Determination of Zoledronate in Porcine Urine”, MDS Pharma Services Study No. AA43671-02, Report Date 14 Sep. 2007) with an assay LLOQ at 10 ng/mL.
Amount of ZA excreted unchanged in urine was determined for the collection interval from dosing to 2-hour post dose and compared between dose routes and co-administration with rHuPH20.
Urine sample volumes and concentration of ZA in the samples were used to calculate the amount of unchanged ZA excreted via the kidneys. Since continuous collection was halted at 2 hours post dose, the percent of administered ZA dose that were renally excreted was not determined. However, the percent of dose excreted within the 2-hour collection interval was estimated with the relationship that the systemically available SC ZA dose is equal to: […]

[1] = Study Group 1, IV infusion, ZA […], dosing to 2 h post dose, n 3
[2] = Study Group 2, SC, […] dose only
[3] = Study Group 2, SC, n 5, dosing to 2 h post dose
[4] = Study Group 3, SC with rHuPH20, […] dose only
[5] = Study Group 3, SC with rHuPH20, n 4, dosing to 2 h post dose

O=P(O)(O)C(O)(Cn1ccnc1)P(=O)(O)O [ZA, 1-hydroxy-2-(1H-imidazol-1-yl)ethylidene-1,1-bisphosphonic acid]
Dose Excreted, Mean [1]: 11.40%
Dose Excreted, Median [1]: 10.71%
Dose Amt 2 hr, Mean [2]: 2.87 mg
Dose Amt 2 hr, Median [2]: 2.88 mg
Dose Excreted, Mean [3]: 9.45%
Dose Excreted, Median [3]: 6.73%
Dose Amt 2 hr, Mean [4]: 3.00 mg
Dose Amt 2 hr, Median [4]: 3.03 mg
Dose Excreted, Mean [5]: 10.66%
Dose Excreted, Median [5]: 12.04%
Dose Amt 2 hr (SC AUC(0-2 h) × CL × body weight) (pig 56, Study Group 3, SC with rHuPH20, ZA […]): 3.06 mg
Dose Excreted (unchanged in urine) (pig 57, Study Group 1, IV infusion, ZA […], dosing to 2 h post dose): 13.23%
Dose Amt 2 hr (SC AUC(0-2 h) × CL × body weight) (pig 58, Study Group 3, SC with rHuPH20, ZA […]): 3.03 mg
Dose Excreted (unchanged in urine) (pig 58, Study Group 3, SC with rHuPH20, ZA […], dosing to 2 h post dose): 0.41%
Dose Amt 2 hr (SC AUC(0-2 h) × CL × body weight) (pig 59, Study Group 2, SC, ZA […]): 1.44 mg
Dose Excreted (unchanged in urine) (pig 59, Study Group 2, SC, ZA […], dosing to 2 h post dose): 5.10%
Dose Amt 2 hr (SC AUC(0-2 h) × CL × body weight) (pig 60, Study Group 2, SC, ZA […]): 3.28 mg
Dose Excreted (unchanged in urine) (pig 60, Study Group 2, SC, ZA […], dosing to 2 h post dose): 6.73%
Dose Excreted (unchanged in urine) (pig 61, Study Group 1, IV infusion, ZA […], dosing to 2 h post dose): 10.71%
Dose Amt 2 hr (SC AUC(0-2 h) × CL × body weight) (pig 62, Study Group 2, SC, ZA […]): 2.42 mg
Dose Excreted (unchanged in urine) (pig 62, Study Group 2, SC, ZA […], dosing to 2 h post dose): 20.08%
Dose Amt 2 hr (SC AUC(0-2 h) × CL × body weight) (pig 64, Study Group 3, SC with rHuPH20, ZA […]): 2.86 mg
Dose Excreted (unchanged in urine) (pig 64, Study Group 3, SC with rHuPH20, ZA […], dosing to 2 h post dose): 12.29%
Dose Amt 2 hr (SC AUC(0-2 h) × CL × body weight) (pig 66, Study Group 3, SC with rHuPH20, ZA […]): 1.22 mg
Dose Excreted (unchanged in urine) (pig 66, Study Group 3, SC with rHuPH20, ZA […], dosing to 2 h post dose): 18.13%
Dose Excreted (unchanged in urine) (pig 67, Study Group 1, IV infusion, ZA […], dosing to 2 h post dose): 10.25%
Dose Amt 2 hr (SC AUC(0-2 h) × CL × body weight) (pig 68, Study Group 3, SC with rHuPH20, ZA […]): 3.03 mg
Dose Excreted (unchanged in urine) (pig 68, Study Group 3, SC with rHuPH20, ZA […], dosing to 2 h post dose): 11.79%
Dose Amt 2 hr (SC AUC(0-2 h) × CL × body weight) (pig 69, Study Group 2, SC, ZA […]): 2.83 mg
Dose Excreted (unchanged in urine) (pig 69, Study Group 2, SC, ZA […], dosing to 2 h post dose): 10.19%
Dose Amt 2 hr (SC AUC(0-2 h) × CL × body weight) (pig 70, Study Group 2, SC, ZA […]): 2.93 mg
Dose Excreted (unchanged in urine) (pig 70, Study Group 2, SC, ZA […], dosing to 2 h post dose): 5.17%
mean percent of dose excreted unchanged in urine (Study Group 1 (IV […])): 11.40%
mean percent of dose excreted unchanged in urine (Study Group 2 (SC ZA without rHuPH20)): 9.45%
